# Data published in US12122778B2, “Activating pyruvate kinase R” (Novo Nordisk Health Care AG, priority 2018, dated 2024).
# Columns and labels:
# PKR(wt) = PKR(wt) (Homo sapiens, UniProt P30613); assay: Luminescence Biochemical Assay (Kinase Glo Plus), wild type PKR; conditions: without FBP; for activation at 1.54 µM: 1.54 μM compound, read-out: AC50 LUM KGP woFBP % Fold@1.54 μM mean; for AC50: read-out: AC50 LUM KGP woFBP AC50 μM gmean; for Emax: read-out: AC50 LUM KGP woFBP MAX % FOLD mean
# PKR(G332S) = PKR(G332S) (Homo sapiens, UniProt P30613, G332S); assay: Luminescence Biochemical Assay (Kinase Glo Plus), PKR G332S mutant; conditions: with FBP; for activation at 1.54 µM: 1.54 μM compound, read-out: AC50 LUM KGP FBP % Fold@1.54 μM mean; for AC50: read-out: AC50 LUM KGP FBP AC50 μM gmean (column A); for Emax: read-out: AC50 LUM KGP FBP MAX % FOLD mean
# PKR(R510Q) = PKR(R510Q) (Homo sapiens, UniProt P30613, R510Q); assay: Luminescence Biochemical Assay (Kinase Glo Plus), PKR R510Q mutant; conditions: without FBP; for activation at 1.54 µM: 1.54 μM compound, read-out: AC50 LUM KGP woFBP % Fold@1.54 μM mean; for AC50: read-out: AC50 LUM KGP woFBP AC50 μM gmean; for Emax: read-out: AC50 LUM KGP woFBP MAX % FOLD mean
# Sequence of PKR(R510Q) (P30613 whole entry R510Q): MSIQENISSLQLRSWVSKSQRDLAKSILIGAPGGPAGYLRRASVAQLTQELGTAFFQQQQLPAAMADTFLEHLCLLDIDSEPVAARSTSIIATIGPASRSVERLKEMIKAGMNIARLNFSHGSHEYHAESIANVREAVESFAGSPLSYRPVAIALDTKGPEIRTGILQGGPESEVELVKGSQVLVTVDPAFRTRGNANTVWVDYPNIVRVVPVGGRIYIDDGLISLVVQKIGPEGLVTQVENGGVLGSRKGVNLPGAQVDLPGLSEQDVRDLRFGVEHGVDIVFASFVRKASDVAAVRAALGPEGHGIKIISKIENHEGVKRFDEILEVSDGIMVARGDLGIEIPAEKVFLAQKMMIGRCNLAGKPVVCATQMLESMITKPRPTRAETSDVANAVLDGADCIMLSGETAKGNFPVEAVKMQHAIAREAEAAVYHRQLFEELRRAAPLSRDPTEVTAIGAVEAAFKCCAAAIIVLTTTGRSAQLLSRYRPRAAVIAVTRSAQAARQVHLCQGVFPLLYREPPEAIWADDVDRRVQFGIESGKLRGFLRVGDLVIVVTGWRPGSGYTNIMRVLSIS
# Sequence of PKR(wt) (P30613 whole entry): as the sequence (P30613 whole entry R510Q) above, with Q510R counted along it
# Sequence of PKR(G332S) (P30613 whole entry G332S): as the sequence (P30613 whole entry R510Q) above, with G332S, Q510R counted along it
activation at 1.54 µM (PKR(wt)) [%],AC50 (PKR(wt)) [µM],Emax (PKR(wt)) [%],activation at 1.54 µM (PKR(G332S)) [%],AC50 (PKR(G332S)) [µM],Emax (PKR(G332S)) [%],activation at 1.54 µM (PKR(R510Q)) [%],AC50 (PKR(R510Q)) [µM],Emax (PKR(R510Q)) [%],SMILES
250 to 50000,0.1 to 1,250 to 500,75 to 250,0.1 to 1,75 to 250,250 to 50000,1 to 40,250 to 500,"Cc1cc(COC(=O)N2CC3=C(C2)CN(S(=O)(=O)c2ccc(OC(F)F)cc2)C3)nn1C [Example 22-4, (1,5-Dimethyl-1H-pyrazol-3-yl)methyl 5-[4-(difluoromethoxy)benzenesulfonyl]-1H,2H,3H,4H,5H,6H-pyrrolo[3,4-c]pyrrole-2-carboxylate]"
75 to 250,1 to 40,75 to 250,75 to 250,1 to 40,75 to 250,75 to 250,1 to 40,75 to 250,"O=C(Cn1cnnn1)N1CC2=C(C1)CN(S(=O)(=O)c1cccnc1)C2 [Example 18-70, 1-[5-(Pyridine-3-sulfonyl)-1H,2H,3H,4H,5H,6H-pyrrolo[3,4-c]pyrrol-2-yl]-2-(1H-1,2,3,4-tetrazol-1-yl)ethan-1-one]"
75 to 250,1 to 40,250 to 500,75 to 250,1 to 40,75 to 250,75 to 250,1 to 40,250 to 500,"O=C(OCC1CC1)N1CC2=C(C1)CN(S(=O)(=O)c1ccc(OC(F)F)cc1)C2 [Example 22-2, Cyclopropylmethyl 5-[4-(difluoromethoxy)benzenesulfonyl]-1H,2H,3H,4H,5H,6H-pyrrolo[3,4-c]pyrrole-2-carboxylate]"
250 to 50000,≤ 0.1,250 to 500,75 to 250,≤ 0.1,75 to 250,250 to 50000,≤ 0.1,250 to 500,"COc1ccc(CNC(=O)N2CC3=C(C2)CN(S(=O)(=O)c2ccc(OC(F)F)cc2)C3)cc1 [Example 21-10, 5-[4-(Difluoromethoxy)benzenesulfonyl]-N-[(4-methoxyphenyl)methyl]-1H,2H,3H,4H,5H,6H-pyrrolo[3,4-c]pyrrole-2-carboxamide]"
75 to 250,0.1 to 1,75 to 250,75 to 250,1 to 40,75 to 250,75 to 250,1 to 40,75 to 250,"CC[C@@H](O)C(=O)N1CC2=C(C1)CN(S(=O)(=O)c1ccc3c(c1)N(C)CCO3)C2 [Example 18-76, (2R)-2-hydroxy-1-{5-[(4-methyl-3,4-dihydro-2H-1,4-benzoxazin-6-yl)sulfonyl]-1H,2H,3H,4H,5H,6H-pyrrolo[3,4-c]pyrrol-2-yl}butan-1-one]"
75 to 250,0.1 to 1,75 to 250,75 to 250,1 to 40,75 to 250,75 to 250,0.1 to 1,75 to 250,"O=C(NCc1ccccc1F)N1CC2=C(C1)CN(S(=O)(=O)c1ccc(C(F)(F)F)nc1)C2 [Example 21-40, N-[(2-fluorophenyl)methyl]-5-{[6-(trifluoromethyl)pyridin-3-yl]sulfonyl}-1H,2H,3H,4H,5H,6H-pyrrolo[3,4-c]pyrrole-2-carboxamide]"

# Second part, the compound before the results:
SMILES,activation at 1.54 µM (PKR(wt)) [%],AC50 (PKR(wt)) [µM],Emax (PKR(wt)) [%],activation at 1.54 µM (PKR(G332S)) [%],AC50 (PKR(G332S)) [µM],Emax (PKR(G332S)) [%],activation at 1.54 µM (PKR(R510Q)) [%],AC50 (PKR(R510Q)) [µM],Emax (PKR(R510Q)) [%]
"O=C(C(O)c1ccc(F)c(F)c1)N1CC2=C(C1)CN(S(=O)(=O)c1ccc(OC(F)F)cc1)C2 (stereo not drawn) [Example 18-23, 1-{5-[4-(Difluoromethoxy)benzenesulfonyl]-1H,2H,3H,4H,5H,6H-pyrrolo[3,4-c]pyrrol-2-yl}-2-(3,4-difluorophenyl)-2-hydroxyethan-1-one]",75 to 250,0.1 to 1,250 to 500,75 to 250,0.1 to 1,75 to 250,250 to 50000,1 to 40,250 to 500
"O=C(Cn1cnnn1)N1CC2=C(C1)CN(S(=O)(=O)c1ccc(OC(F)F)cc1)C2 [Example 18-19, 1-(5-((4-(difluoromethoxy)phenyl)sulfonyl)-3,4,5,6-tetrahydropyrrolo[3,4-c]pyrrol-2(1H)-yl)-2-(1H-tetrazol-1-yl)ethan-1-one]",250 to 50000,0.1 to 1,250 to 500,75 to 250,≤ 0.1,75 to 250,250 to 50000,0.1 to 1,250 to 500
"O=C([C@@H](O)c1ccc2c(c1)NCCO2)N1CC2=C(C1)CN(S(=O)(=O)c1ccc(OC(F)F)cc1)C2 (single isomer, unassigned) [Example 9-5]",250 to 50000,≤ 0.1,250 to 500,75 to 250,≤ 0.1,75 to 250,250 to 50000,≤ 0.1,250 to 500
"O=C(Cc1ccc[nH]1)N1CC2=C(C1)CN(S(=O)(=O)c1ccc(OC(F)F)cc1)C2 [Example 18-27, 1-{5-[4-(Difluoromethoxy)benzenesulfonyl]-1H,2H,3H,4H,5H,6H-pyrrolo[3,4-c]pyrrol-2-yl}-2-(1H-pyrrol-2-yl)ethan-1-one]",75 to 250,1 to 40,75 to 250,75 to 250,1 to 40,75 to 250,75 to 250,1 to 40,75 to 250
"Cc1ccc(S(=O)(=O)N2CC3=C(CN(C(=O)[C@H](O)c4ccccc4)C3)C2)cc1F [Example 18-51, (2R)-1-[5-(3-fluoro-4-methylbenzenesulfonyl)-1H,2H,3H,4H,5H,6H-pyrrolo[3,4-c]pyrrol-2-yl]-2-hydroxy-2-phenylethan-1-one]",75 to 250,0.1 to 1,75 to 250,75 to 250,1 to 40,75 to 250,75 to 250,0.1 to 1,250 to 500
"O=C(N1CC2=C(C1)CN(S(=O)(=O)c1ccc(OC(F)F)cc1)C2)C(F)(F)c1ccccc1 [Example 18-25, 1-(5-((4-(Difluoromethoxy)phenyl)sulfonyl)-3,4,5,6-tetrahydropyrrolo[3,4-c]pyrrol-2(1H)-yl)-2,2-difluoro-2-phenylethan-1-one]",250 to 50000,≤ 0.1,250 to 500,75 to 250,≤ 0.1,75 to 250,250 to 50000,≤ 0.1,250 to 500
"O=C(C(O)c1cccnc1)N1CC2=C(C1)CN(S(=O)(=O)c1ccc(OC(F)F)cc1)C2 (stereo not drawn) [Example 9-1, 1-(5-[[4-(Difluoromethoxy)benzene]sulfonyl]-1H,2H,3H,4H,5H,6H-pyrrolo[3,4-c]pyrrol-2-yl)-2-hydroxy-2-(pyridin-3-yl)ethan-1-one]",250 to 50000,≤ 0.1,250 to 500,75 to 250,≤ 0.1,75 to 250,250 to 50000,≤ 0.1,250 to 500
